Experimental data taken from patent US9029414B2, “Triterpenoid compounds and methods of use thereof” (Biotechnology Research Corporation, priority 2008, dated 2015).

Key:
IP receptor = IP receptor (Homo sapiens, UniProt P43119); assay: Radioligand competition binding assay, IP; settings: target PGI, compound at 10 μM in duplicate, read-out: % inhibition of control specific binding
Protocol: DA001 was further evaluated against 32 receptor binding assays. Radioligand competition assays were conducted whereby DA001 was tested at one concentration (10 uM) in duplicate. […] It could compete with the radioligand [^3H] PGE2 binding at the EP1 and EP4 receptors, and weakly competed with the EP2 and FP receptors.
To determine the targets of DA compounds, the compound was assessed in binding assays for the family of prostanoid receptors. Both compounds were tested at a single concentration (10 μM) in duplicate. DA001 and DA021 inhibit the ligand binding of prostaglandin E2 receptors EP1, EP2 and EP4 and moderately to prostaglandin (PGF) to its receptor (FP), but not prostaglandin I (PGI2), thromoboxane A and prostaglandin D2 to their receptors.

[1] = tested on: C57BL/6 mice immunized with MOG; assay: Experimental autoimmune encephalomyelitis (EAE) behavioral scores; format: in vivo; settings: 100 mg/kg oral daily from day of immunization
Protocol: FIG. 15 illustrates that DA001 improves the behavioral scores of mice with experimental autoimmune encephalomyelitis. C57BL/6 mice were immunized subcutaneously at both sides of their hind limbs with myelin oligodendrocyte glycoprotein (MOG)/Complete Freund's Adjuvant (CFA) kit (Hooke Laboratories) and performed as indicated in the manufacturer's instruction. Albumin/CFA kit (Hooke Laboratories) were used as an immunization control. Oral administration of DA001 at 100 mg/kg was given daily starting from the day of immunization. The vehicle (water) was given to mice injected with MOG or albumin daily via oral administration. Animals were weighed and monitored daily and behavioral impairment was quantified based on the clinical scale. The graph presented here is a composite of four separate EAE trials. **=p≦0.01.
FIG. 16 illustrates that DA002 improves the behavioral scores of mice with experimental autoimmune encephalomyelitis. C57BL/6 mice were immunized subcutaneously at both sides of their hind limbs with myelin oligodendrocyte glycoprotein (MOG)/Complete Freund's Adjuvant (CFA) kit (Hooke Laboratories) and performed as indicated in the manufacturer's instruction. […] Animals were weighed and monitored daily and behavioral impairment was quantified based on the clinical scale. *=p≦0.05.
C57BL/6 mice were immunized subcutaneously at both sides of their hind limbs with myelin oligodendrocyte glycoprotein (MOG)/Complete Freund's Adjuvant (CFA) kit (Hooke Laboratories) and performed as in manufacturer's instruction. […] Animals were weighed and monitored daily and behavioral impairment was quantified based on the clinical scale. […]
On day 0, six-week old male C57BL/6 mice (Hong Kong University of Science and Technology, Animal Care facility) were immunized with 100 μg of myelin oligodendrocyte glycoprotein peptide (MOG35-55)/complete Freund's Adjuvant (CFA) emulsion kit (Hooke Laboratories) was injected subcutaneously at both sides of the tail base. […] The animals were also weighed and the neurological impairment was quantified daily based on the previously published criteria. […]

Chain of IP receptor (P43119 whole entry): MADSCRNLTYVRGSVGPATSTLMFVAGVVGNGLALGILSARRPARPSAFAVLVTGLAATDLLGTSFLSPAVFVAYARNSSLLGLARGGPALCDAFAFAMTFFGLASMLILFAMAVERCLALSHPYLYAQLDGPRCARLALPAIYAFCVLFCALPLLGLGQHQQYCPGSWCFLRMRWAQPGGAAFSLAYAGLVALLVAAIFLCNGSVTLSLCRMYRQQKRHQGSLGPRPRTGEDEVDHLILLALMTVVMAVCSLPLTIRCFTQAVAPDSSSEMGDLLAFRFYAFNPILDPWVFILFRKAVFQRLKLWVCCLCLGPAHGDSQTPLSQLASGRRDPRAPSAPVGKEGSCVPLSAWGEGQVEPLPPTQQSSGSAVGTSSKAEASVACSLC

SMILES	inhibition at 10 µM (IP receptor)	EAE scores vs vehicle-treated EAE mice [1]
C=C(C)[C@@H]1CC[C@]2(C(=O)O)CC[C@]3(C)C(CC[C@@H]4[C@@]5(C)CC[C@H](O[C@@H]6OC[C@H](O)[C@H](O)[C@H]6O[C@@H]6O[C@@H](C)[C@H](O)[C@@H](O)[C@H]6O)[C@@](C)(CO)[C@@H]5CC[C@]43C)[C@@H]12 (stereo partly drawn) [DA001, 3-O-[α-L-rhamnopyranosyl-(1→2)-α-L-arabinopyranosyl]-3,23-dihydroxy-20(29)-lupen-28-oic acid]	0%	marked decrease in EAE scores
C=C(C)[C@@H]1CC[C@]2(/C=N/O)CC[C@]3(C)C(CCC4[C@@]5(C)CCC(=O)[C@@](C)(CO)[C@@H]5CC[C@]43C)C12 (stereo partly shown) [DA021]	9%	marked decrease in the EAE scores
